The results in this text go back to ChEMBL document CHEMBL5303573, “Mapping human microbiome drug metabolism by gut bacteria and their genes” (Nature, 2019).

Series [1] in a line: The drug is tested on Enterobacter cancerogenus strain: ATCC35316 for biotransformation. The drug concentrations were measured before and after a 12-h incubation by liquid-chromatography-coupled mass spectrometry (LC–MS). The following applies: 2 µM.
Series [2] can be described thus: The drug is tested on Ruminococcus gnavus strain: ATCC29149 for biotransformation. The drug concentrations were measured before and after a 12-h incubation by liquid-chromatography-coupled mass spectrometry (LC–MS). The following applies: mediterraneibacter gnavus, 2 µM.
Series [3] in a line: The drug is tested on Anaerococcus hydrogenalis strain: DSM7454 for biotransformation. The drug concentrations were measured before and after a 12-h incubation by liquid-chromatography-coupled mass spectrometry (LC–MS). The following applies: 2 µM.
A short description of series [4]: The drug is tested on Clostridium sp. strain: fecal isolate for biotransformation. The drug concentrations were measured before and after a 12-h incubation by liquid-chromatography-coupled mass spectrometry (LC–MS). The following applies: 2 µM.
Series [5] is described as follows: The drug is tested on Collinsella intestinalis strain: DSM13280 for biotransformation. The drug concentrations were measured before and after a 12-h incubation by liquid-chromatography-coupled mass spectrometry (LC–MS). The following applies: 2 µM.
A short description of series [6]: The drug is tested on Bacteroides fragilis strain: ATCC43859 for biotransformation. The drug concentrations were measured before and after a 12-h incubation by liquid-chromatography-coupled mass spectrometry (LC–MS). As to conditions: 2 µM.
Series [7] is described as follows: The drug is tested on Clostridium scindens strain: ATCC35704 for biotransformation. The drug concentrations were measured before and after a 12-h incubation by liquid-chromatography-coupled mass spectrometry (LC–MS). The following applies: 2 µM.
Series [8] in a line: The drug is tested on Anaerotruncus colihominis strain: DSM17241 for biotransformation. The drug concentrations were measured before and after a 12-h incubation by liquid-chromatography-coupled mass spectrometry (LC–MS). As to conditions: 2 µM.
Series [9] is described as follows: The drug is tested on Subdoligranulum variabile strain: DSM15176 for biotransformation. The drug concentrations were measured before and after a 12-h incubation by liquid-chromatography-coupled mass spectrometry (LC–MS). As to conditions: 2 µM.
Series [10] is described as follows: The drug is tested on Providencia rettgeri strain: DSM1131 for biotransformation. The drug concentrations were measured before and after a 12-h incubation by liquid-chromatography-coupled mass spectrometry (LC–MS). It is filed as ADME. Details: dose 2 uM, timepoint 0 vs 12 hours. The following applies: 2 µM.
A short description of series [11]: The drug is tested on Bacteroides finegoldii strain: DSM17565 for biotransformation. The drug concentrations were measured before and after a 12-h incubation by liquid-chromatography-coupled mass spectrometry (LC–MS). The following applies: 2 µM.
The conditions of series [12]: bacteroides thetaiotaomicron, 12 h, 2 µM.
Description: The drug is tested on Bacteroides thetaiotaomicron strain: 3731 for biotransformation. The drug concentrations were measured before and after a 12-h incubation by liquid-chromatography-coupled mass spectrometry (LC–MS)
Series [13] is described as follows: The drug is tested on Bacteroides cellulosilyticus strain: DSM14838 for biotransformation. The drug concentrations were measured before and after a 12-h incubation by liquid-chromatography-coupled mass spectrometry (LC–MS). The following applies: 2 µM.
The nature of series [14]: The drug is tested on Clostridium sporogenes strain: ATCC15579 for biotransformation. The drug concentrations were measured before and after a 12-h incubation by liquid-chromatography-coupled mass spectrometry (LC–MS). The following applies: 2 µM.
The conditions of series [15]: bacteroides stercoris, 12 h, 2 µM.
Description: The drug is tested on Bacteroides stercoris strain: ATCC43183 for biotransformation. The drug concentrations were measured before and after a 12-h incubation by liquid-chromatography-coupled mass spectrometry (LC–MS)
Series [16] is described as follows: The drug is tested on Parabacteroides merdae strain: ATCC43184 for biotransformation. The drug concentrations were measured before and after a 12-h incubation by liquid-chromatography-coupled mass spectrometry (LC–MS). The following applies: 2 µM.
A short description of series [17]: The drug is tested on Bacteroides caccae strain: ATCC43185 for biotransformation. The drug concentrations were measured before and after a 12-h incubation by liquid-chromatography-coupled mass spectrometry (LC–MS). The following applies: 2 µM.
Series [18] is described as follows: The drug is tested on Edwardsiella tarda strain: ATCC23685 for biotransformation. The drug concentrations were measured before and after a 12-h incubation by liquid-chromatography-coupled mass spectrometry (LC–MS). As to conditions: 2 µM.
A short description of series [19]: The drug is tested on Blautia luti strain: DSM14534 for biotransformation. The drug concentrations were measured before and after a 12-h incubation by liquid-chromatography-coupled mass spectrometry (LC–MS). The format is ADME. Details: dose 2 uM, timepoint 0 vs 12 hours. As to conditions: 2 µM.
The conditions of series [20]: parabacteroides distasonis, 12 h, 2 µM.
Description: The drug is tested on Parabacteroides distasonis strain: ATCC8503 for biotransformation. The drug concentrations were measured before and after a 12-h incubation by liquid-chromatography-coupled mass spectrometry (LC–MS)

The structures appear in SMILES notation.

On to `CC[C@@H](CO)NC(=O)[C@@H]1C=C2c3cccc4c3c(cn4C)C[C@H]2N(C)C1.O=C(O)/C=C\C(=O)O` [METHYSERGIDE MALEATE], for which the “Bacterial Biotransformation” value in [1] is “Compound metabolized”; in series [2] it was “Compound metabolized”; in series [3], “Compound metabolized”; in series [4], “Compound metabolized”; in [5], “Compound NOT metabolized”; in [6], “Compound NOT metabolized”. Moreover, the “Bacterial Biotransformation” value in [7], in series [8], in series [9], in series [10], in series [11] and in series [12] was “Compound metabolized” throughout. In addition, the “Bacterial Biotransformation” value in series [13], in series [14], in series [15], in series [16], in series [17] and in series [18] was “Compound metabolized” in each case. Further, the “Bacterial Biotransformation” value in [19] and in series [20] was “Compound metabolized” in each case.

For `CC[C@H](C)C(=O)O[C@H]1CCC=C2C=C[C@H](C)[C@H](CC[C@@H]3C[C@@H](O)CC(=O)O3)[C@H]21` [MEVASTATIN], the “Bacterial Biotransformation” value is “Compound metabolized” in series [1]; “Compound metabolized” in series [2]; “Compound metabolized” in series [3]; “Compound metabolized” in series [4]; “Compound metabolized” in series [5]; “Compound NOT metabolized” in series [6]. The “Bacterial Biotransformation” value in [7], in [8], in series [9], in [10], in series [11] and in series [12] was “Compound metabolized” throughout. Further, the “Bacterial Biotransformation” value in series [13], in series [14], in series [15], in series [16], in series [17] and in series [18] was “Compound metabolized” in each case. The “Bacterial Biotransformation” value in series [19] and in [20] was “Compound metabolized” in each case.

Turning to `COc1c(C)c2c(c(O)c1C/C=C(\C)CCC(=O)OCCN1CCOCC1)C(=O)OC2` [MYCOPHENOLATE MOFETIL], the “Bacterial Biotransformation” value in series [1], in [2], in [3], in series [4], in series [5] and in series [6] was “Compound metabolized” each time. Besides, the “Bacterial Biotransformation” value in series [7], in [8], in [9], in series [10], in series [11] and in [12] was “Compound metabolized” each time. Further, the “Bacterial Biotransformation” value in series [13], in series [14], in series [15], in [16], in series [17] and in [18] was “Compound metabolized” in each case. Besides, the “Bacterial Biotransformation” value in series [19] and in series [20] was “Compound metabolized” throughout.

As for `CCOC(=O)C1=C(C)NC(C)=C(C(=O)OC)C1c1cccc([N+](=O)[O-])c1` (stereo not given) [NITRENDIPINE], the “Bacterial Biotransformation” value is listed as “Compound NOT metabolized” in series [1]; “Compound metabolized” in series [2]; “Compound metabolized” in [3]; “Compound metabolized” in series [4]; “Compound metabolized” in series [5]; “Compound metabolized” in [6]. In addition, the “Bacterial Biotransformation” value in series [7], in series [8], in series [9], in [10], in [11] and in series [12] was “Compound metabolized” in each case. For the same compound, the “Bacterial Biotransformation” value in series [13], in series [14], in [15], in series [16], in [17] and in [18] was “Compound metabolized” throughout. Further, the “Bacterial Biotransformation” value in series [19] and in series [20] was “Compound metabolized” throughout.

Regarding `CNC(=C[N+](=O)[O-])NCCSCc1csc(CN(C)C)n1` [NIZATIDINE], the “Bacterial Biotransformation” value is listed as “Compound metabolized” in [1]; “Compound metabolized” in series [2]; “Compound metabolized” in [3]; “Compound metabolized” in series [4]; “Compound metabolized” in [5]; “Compound NOT metabolized” in series [6]. Further, the “Bacterial Biotransformation” value in series [7] is on record as “Compound metabolized”; in series [8] it was “Compound metabolized”; in series [9] it was “Compound metabolized”; in series [10], “Compound NOT metabolized”; in [11], “Compound metabolized”; in series [12], “Compound NOT metabolized”. The “Bacterial Biotransformation” value in series [13] is “Compound metabolized”; in [14] it was “Compound NOT metabolized”; in series [15], “Compound NOT metabolized”; in [16], “Compound NOT metabolized”; in series [17], “Compound NOT metabolized”; in series [18] it was “Compound metabolized”. Besides, the “Bacterial Biotransformation” value in [19] and in [20] was “Compound metabolized” each time.

Take `COc1ccc2[nH]c([S+]([O-])Cc3ncc(C)c(OC)c3C)nc2c1` (stereo not given) [OMEPRAZOLE]: the “Bacterial Biotransformation” value in series [1], in series [2], in series [3], in [4], in series [5] and in [6] was “Compound metabolized” in each case. Also, the “Bacterial Biotransformation” value in [7], in [8], in [9], in [10], in [11] and in series [12] was “Compound metabolized” each time. For the same compound, the “Bacterial Biotransformation” value in [13], in series [14], in [15], in series [16], in [17] and in series [18] was “Compound metabolized” in each case. Also, the “Bacterial Biotransformation” value in series [19] and in [20] was “Compound metabolized” in each case.
